Results published in the METLIN SMRT retention time set (Domingo-Almenara et al. 2019).

Assay: gradient 5% acetonitrile 3 min, to 50% in 2 min, to 85% in 15 min, held 3 min, 100 µL/min
Settings: column: Zorbax Extend-C18 2.1 x 50 mm; eluents: water / acetonitrile, 0.1% formic acid
Summary of the method: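 The system's dead and dwell volumes were 40 μL and 900 μL, with a Zorbax Extend-C18 column (2.1 × 50 mm, 1.8 μm) run at 100 μL/min in water and acetonitrile containing 0.1% formic acid each. Pure standards were analyzed in mixtures of ~100 molecules by HPLC–quadrupole time-of-flight mass spectrometry in positive and negative ionization mode. Retention time was assigned from computationally picked, manually inspected adduct peaks.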

CCOC(=O)c1cc(C2CC2)nc2c1c(=O)n(CC(=O)NC1CCCC1)c(=O)n2C
RP-LC retention time: 952 s

CCOC(=O)Cc1n[nH]c(CSc2nc3ccccc3s2)n1
RP-LC retention time: 691 s

Cc1noc(C2CN(C(=O)COc3ccc(Cl)cc3)CC23CCOCC3)n1 (centres undefined)
RP-LC retention time: 768 s

COCc1c(C(=O)O)nnn1-c1ccc(C(C)C)cc1
RP-LC retention time: 825 s

O=C(N[C@H]1C[C@@H]2C[C@H]1N(C(=O)c1ccccc1Cl)C2)c1cccnc1
RP-LC retention time: 602 s

CCCNC(=O)c1nc2cc(C)c(C)cc2[nH]c1=O
RP-LC retention time: 671 s

CCOC(CNCc1cc(C)c2[nH]c3ccccc3c2c1C)OCC
RP-LC retention time: 812 s

CC(=O)Nc1cc(C(=O)NCC(C)C)c2ccc(C)nc2c1
RP-LC retention time: 574 s

Cc1ncc2c(n1)CCCN(CC(=O)NC1CCCCCC1)C2=O
RP-LC retention time: 682 s

CCSc1nnc(NC(=O)c2nnn(-c3nc4c(s3)CCCC4)c2C)s1
RP-LC retention time: 1190 s

Cc1ccc(NC(=O)N2CCN(CCn3c(C(C)C)nc4cccnc43)CC2)c(C)c1
RP-LC retention time: 621 s

Cc1cc(C2CCCN2C(=O)Nc2ccc(C)c(Cl)c2)no1 (centres undefined)
RP-LC retention time: 906 s

Cc1ccc(-c2noc(C(=O)N3CCOCC3)n2)cc1S(=O)(=O)N1CCN(c2ncccn2)CC1
RP-LC retention time: 906 s

O=C(Nc1ccccc1F)N1CC(Oc2ccc(-c3nc(-c4ccccc4)no3)cc2)C1
RP-LC retention time: 1130 s

O=C(Nc1ccc(OC(F)(F)F)cc1)C(=O)Nc1cccc([N+](=O)[O-])c1
RP-LC retention time: 1030 s

CCOc1ccc(NC(=O)c2cnc3c(c2)c(=O)n(C)c(=O)n3-c2ccc(F)cc2)cc1
RP-LC retention time: 866 s

O=C(Nc1cccc2cccnc12)c1ccc(N2C(=O)[C@@H]3[C@H](C2=O)[C@@H]2C=C[C@H]3C2)cc1
RP-LC retention time: 941 s

CC1=C(c2ccccc2)S(=O)(=O)N=C1N1CCCN(C(=O)CC2CCCC2)CC1
RP-LC retention time: 861 s

CCc1cccc(C)c1N(C(=O)Cn1c(CC)nc2ccccc21)C(C)COC (centres undefined)
RP-LC retention time: 776 s

CN(CC1CCOC1)C(=O)Nc1ccc(F)cc1 (centres undefined)
RP-LC retention time: 671 s

Cc1ccc2nc(C(=O)NCCN3CCCCC3C)cn2c1 (centres undefined)
RP-LC retention time: 552 s

Cc1ccccc1-c1nc(-c2cccc(-c3ccn[nH]3)c2)no1
RP-LC retention time: 1080 s

Cc1cccc2c(=O)n(C3CCN(C(=O)Nc4ccc(F)cc4)CC3)cnc12
RP-LC retention time: 765 s

CCOC(=O)N1CCN(S(=O)(=O)c2ccc(C(=O)Nc3cc(C)nn3C)cc2)CC1
RP-LC retention time: 687 s

CC(C)Cc1nc(-c2ccccc2)oc1CC(=O)Nc1ccc(F)cc1Cl
RP-LC retention time: 1180 s

COC(=O)c1ccc(Cl)cc1NC(=O)N1CCN(Cc2nc3cc(Cl)ccc3o2)CC1
RP-LC retention time: 1150 s

O=C(Nc1nnc(C2CC(=O)N(c3ccccc3)C2)o1)c1ccc(Cl)cc1 (centres undefined)
RP-LC retention time: 746 s

CCCc1ccc(S(=O)(=O)N2CCC3(CC2)NCCN=C3NCc2ccccc2)cc1
RP-LC retention time: 809 s

O=c1ccc2cc(S(=O)(=O)N3CCN(c4ccccn4)CC3)ccc2[nH]1
RP-LC retention time: 581 s

COc1ccc(C2CC(=O)N(c3ccccc3)C(=O)C2)cc1OC
RP-LC retention time: 860 s

CC1=C(c2cccc(Cl)c2)S(=O)(=O)N=C1N1CCC(NC(=O)C2CCC2)CC1
RP-LC retention time: 840 s

O=C(Nc1ccc(F)cc1F)C1CCc2nc(N3CCOCC3)ncc2C1 (centres undefined)
RP-LC retention time: 734 s

CCc1cc(=O)n(CC(=O)NCc2ccccc2)c(N)n1
RP-LC retention time: 566 s

Cc1ccc(NS(=O)(=O)c2cn(CC(C)C)c3ncccc23)cc1C
RP-LC retention time: 1040 s

CC(=O)NCc1nc(-c2ccccc2Cl)no1
RP-LC retention time: 673 s

CCOc1ccc2nc(NC(=O)c3cc(=O)c(OCc4ccccc4)cn3C)sc2c1
RP-LC retention time: 741 s

CCOc1ccc(CNC(=O)c2ccc3c(c2)nc2n3CCN(C3CCCCC3)C2=O)cc1
RP-LC retention time: 830 s

CCn1cc(-c2nc(C)c(C(=O)Nc3ccc4c(c3)OCCO4)s2)c2cccnc21
RP-LC retention time: 925 s

O=C1CC(c2ccccc2)Cc2[nH]c(=O)c(C(=O)Nc3cccc(C(F)(F)F)c3)cc21 (centres undefined)
RP-LC retention time: 1020 s

O=C(Nc1ccc(F)c(Cl)c1)C1CCCN(c2ncnc3c2nc2n3CCCCC2)C1 (centres undefined)
RP-LC retention time: 917 s

COCCCN1C(=O)CC(N2CCN(c3ccc(F)cc3)CC2)C1=O (centres undefined)
RP-LC retention time: 666 s

CCOC(=O)c1ccc(NC(=O)NCC2CCN(Cc3ccc(C)cc3)C2)cc1 (centres undefined)
RP-LC retention time: 688 s

COCCNC(=O)c1csc(N2CCN(c3ccccc3)CC2)n1
RP-LC retention time: 863 s

O=C(CN1CCN(Cc2ccccc2F)C1=O)NCc1ccccc1Br
RP-LC retention time: 853 s

CC(NC(=O)c1csc(-c2ccc(N3CCCC3)nc2)n1)c1ccccn1 (centres undefined)
RP-LC retention time: 573 s

O=C(CN1C(=O)c2ccccc2C1=O)Nc1nnc(C2=COCCO2)o1
RP-LC retention time: 609 s

COCCN1C(=O)c2ccccc2C(C(=O)NCCCN2CCOCC2)C1c1cccs1 (centres undefined)
RP-LC retention time: 805 s

CCc1ccc(C(=O)N2CCCC(COc3ccc(C(=O)NC(C)C)cc3)C2)cc1 (centres undefined)
RP-LC retention time: 944 s

CSc1cccc(NC(=O)Cn2nc3n(c2=O)CCCC3)c1
RP-LC retention time: 669 s

CCc1ccc(C(=O)CC2(O)C(=O)Nc3c(C)cccc32)cc1 (centres undefined)
RP-LC retention time: 807 s

Cc1ccc(S(=O)(=O)N2CCC(c3noc(-c4ccccc4C)n3)CC2)cc1C
RP-LC retention time: 1260 s

COc1cccc(NC(=O)c2sc(-c3cn(C(C)C)c4ncccc34)nc2C)c1
RP-LC retention time: 1060 s

O=C(c1ccco1)N1CCN(S(=O)(=O)CCCOc2ccc3c(c2)OCO3)CC1
RP-LC retention time: 764 s

Cc1ccc(CNC(=O)C2CCN(S(C)(=O)=O)c3cc(Cl)ccc3O2)cc1 (centres undefined)
RP-LC retention time: 955 s

CC(NC(=O)Nc1ccccc1)C(c1ccccc1)N1CCN(C)CC1 (centres undefined)
RP-LC retention time: 572 s

O=c1n(Cc2ccc(F)cc2)nc2ccc(S(=O)(=O)N3CCc4ccccc4C3)cn12
RP-LC retention time: 983 s

COc1cc2c(Oc3ccc4[nH]c(C)cc4c3F)ncnc2cc1OCCCN1CCCC1
RP-LC retention time: 709 s

O=c1n(CCOc2ccc(F)cc2)nc2c(S(=O)(=O)N3CCCCCC3)cccn12
RP-LC retention time: 744 s

COc1ccc(S(=O)(=O)N2CCOC2CNC(=O)C(=O)NCc2ccccn2)cc1C (centres undefined)
RP-LC retention time: 603 s

COc1cc([C@@H]2c3cc4c(cc3[C@H](O)[C@@H](CO)[C@@H]2C(=O)NCC2CC2)OCO4)cc(OC)c1OC
RP-LC retention time: 666 s

O=C(c1ccc2c(c1)N(Cc1ccccc1)C(=O)CO2)N1CCN(c2ccccn2)CC1
RP-LC retention time: 1230 s

O=C(Cc1ccsc1)NCc1cccnc1Oc1ccccc1
RP-LC retention time: 704 s

COc1ccc(CN(C)Cc2cc(=O)c3cc(C)ccc3[nH]2)cc1
RP-LC retention time: 603 s

O=C(C1CCCN(c2nccnc2Sc2ccccc2)C1)N1CCCCCC1 (centres undefined)
RP-LC retention time: 1120 s

Cc1cc(CNC(=O)NC(C)(C)C)on1
RP-LC retention time: 636 s

CCOC(=O)c1c(CN2CCN(C)CC2)n(-c2ccccc2)c2cc(Br)c(OC)cc12
RP-LC retention time: 850 s

CCc1nnc(NS(=O)(=O)c2ccc(NC(=O)c3ccc(Cl)s3)cc2)s1
RP-LC retention time: 821 s

CC1(C)c2ccccc2-c2nc3ccccc3cc2C1O (centres undefined)
RP-LC retention time: 890 s

CCCc1nc(-c2c(C)cc(C)nc2NC(=O)c2ccccc2Cl)no1
RP-LC retention time: 934 s

O=c1[nH]c2ccc(NCc3ccccc3)cc2[nH]1
RP-LC retention time: 571 s

Cc1cccc(CNC(=O)C2=C3CCCN3c3ccccc3S2(=O)=O)c1
RP-LC retention time: 856 s

Cn1ncc2c3ccccc3n(CC(=O)NCCCN3CCCC3)c2c1=O
RP-LC retention time: 592 s

CCc1ccc(CNC(=O)C2CCCN(c3ccc(=O)n(-c4ccc(F)cc4)n3)C2)cc1 (centres undefined)
RP-LC retention time: 910 s

Cc1ccc(-c2nc(C(N)=O)c3n2CCCCC3)cc1
RP-LC retention time: 690 s

Cc1nc2cccnc2n1C1CCN(C(=O)Nc2ccc3c(c2)OCCO3)CC1
RP-LC retention time: 612 s

CC(C)N1C(=O)C(C)(C(=O)Nc2cccc(Cl)c2)Oc2cccnc21 (centres undefined)
RP-LC retention time: 1070 s

Cc1cc(C)cc(NC(=O)Cn2c(C)cc(-c3nnc(C)o3)c2C)c1
RP-LC retention time: 843 s

Cn1cc(C(=O)NCc2ccc3c(c2)OCO3)c2cccnc21
RP-LC retention time: 706 s

Cc1cccc2c(=O)n(C3CCN(S(=O)(=O)c4ccccc4)CC3)cnc12
RP-LC retention time: 921 s

O=C(CCC1CCN(c2cc(NC3CC3)ncn2)CC1)NCc1cccc(Cl)c1
RP-LC retention time: 680 s

Clc1ccccc1-c1noc(Cc2nnc(-c3cccc(Br)c3)o2)n1
RP-LC retention time: 1100 s

C[C@@H]1O[C@@H](O[C@H]2C(Oc3cc(O)c4c(=O)c(O)c(-c5ccc(O)cc5)oc4c3)O[C@H](CO)[C@@H](O)[C@@H]2O)[C@H](O)[C@H](O)[C@H]1O (some centres undefined)
RP-LC retention time: 677 s

CCC(C)C(NC(=O)c1sccc1C)C(=O)Nc1nc2ccccc2[nH]1 (centres undefined)
RP-LC retention time: 746 s

Cc1ccc2oc(N3CCN(C(=O)c4ccc(-c5noc(C(C)C)n5)cc4)CC3)nc2n1
RP-LC retention time: 685 s

CNS(=O)(=O)c1cccnc1Nc1cc(C)cc(C)c1
RP-LC retention time: 990 s

CN1CCN(S(=O)(=O)c2ccc(Cl)c(-c3nnc(-c4ccccc4)o3)c2)CC1
RP-LC retention time: 681 s

COCCc1nncn1C1CCN(S(=O)(=O)c2cccc(F)c2)CC1
RP-LC retention time: 696 s

COc1ccc(CCNc2nc3ccncc3n(C(C)C)c2=O)cc1OC
RP-LC retention time: 631 s

Cc1cc(C)n(-c2ccc(=O)n(C(C)C(=O)NCCc3csc(-c4ccccc4)n3)n2)n1 (centres undefined)
RP-LC retention time: 780 s
